Assay results: the supplement of paper PMC10307832

Key:
Selisistat + Trametinib = compound: C1CC(C2=C(C1)C3=C(N2)C=CC(=C3)Cl)C(=O)N [Selisistat] + CC(=O)Nc1cccc(-n2c(=O)n(C3CC3)c(=O)c3c(Nc4ccc(I)cc4F)n(C)c(=O)c(C)c32)c1 [Trametinib] (partner 0.02 µM); experiment: relative viability (nuclei count vs DMSO), 5 days (fraction); higher = more cells survive
Method in brief: (§1)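 Lung cancer cell lines, seeded in 1536-well plates, were treated the following day by pin tool with a single drug or with five library-drug doses (not always all listed) in √10 steps on top of a fixed anchor-drug dose. Cells were fixed and nuclei stained in one step after 5 days, and nuclei were counted. Relative viability is the nuclei count for treated wells divided by that for vehicle wells, reported as medians of duplicate plates.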

Selisistat + AZD7762 = compound: C1CC(C2=C(C1)C3=C(N2)C=CC(=C3)Cl)C(=O)N [Selisistat] + NC(=O)Nc1cc(-c2cccc(F)c2)sc1C(=O)N[C@H]1CCCNC1 [AZD7762] (partner 0.2 µM); experiment: as above
Method in brief: as §1

Cell Line	relative viability (Selisistat + Trametinib; first compound 0.4 µM)	relative viability (Selisistat + Trametinib; first compound 1.265 µM)	relative viability (Selisistat + Trametinib; first compound 4 µM)	relative viability (Selisistat + Trametinib; first compound 12.65 µM)	relative viability (Selisistat + Trametinib; first compound 40 µM)	relative viability (Selisistat + AZD7762; first compound 0.4 µM)	relative viability (Selisistat + AZD7762; first compound 1.265 µM)	relative viability (Selisistat + AZD7762; first compound 4 µM)	relative viability (Selisistat + AZD7762; first compound 12.65 µM)	relative viability (Selisistat + AZD7762; first compound 40 µM)
201T	0.761	0.655	0.71	0.691	0.749	0.644	0.623	0.7	0.602	0.659
A-427	0.842	0.801		0.776	0.775	0.742	0.785		0.725	0.757
ABC-1						0.791	0.778		0.829	1.08
BEN	1.05	0.882	0.896	1.03	0.957	0.74	0.535	0.471	0.71	0.649
CAL-12T	0.375	0.365	0.35	0.311	0.341	0.589	0.626	0.566	0.605	0.732
COR-L23	0.66	0.597	0.656	0.614	0.645					
COR-L 105	0.45	0.421	0.421	0.442	0.512					
ChaGo-K-1	0.895	0.886	0.881	0.895	0.888	0.787	0.828	0.883	0.838	0.8
EKVX	0.383	0.392	0.324	0.379	0.48	0.682	0.732	0.705	0.699	0.802
EMC-BAC-2	0.907	0.927	0.96	0.885	0.816	1.08	1.11	1.07	0.661	0.598
EPLC-272H	0.294	0.287		0.284	0.33	0.236	0.215		0.318	0.336
H3255	0.664	0.526	0.584	0.636	0.637	0.898	0.861	0.733	0.895	0.806
HARA	0.659	0.962		0.509	0.377	0.237	0.342		0.364	0.219
HCC-15	0.453	0.433		0.37	0.468	1.34	1.23	1.16	1.3	1.55
HCC-44	1.1	1.22	1.13	1.07	1.05	1	1.04	1.1	1.02	1.15
HCC-78	0.783	0.779	0.696	0.744	0.732	0.626	0.669	0.431	0.683	0.502
HCC-366	0.435	0.302	0.329	0.301	0.285	0.315	0.225	0.257	0.186	0.166
HCC-827	0.529	0.575	0.546	0.572	0.559	0.206	0.154	0.187	0.279	0.24
HOP-62	0.431	0.394	0.362	0.401	0.408	0.62	0.568	0.696	0.633	1.2
LC-2-ad	0.973	0.96	0.898	0.662	0.95	0.827	0.814	0.68	0.775	0.9
LCLC-97TM1	0.192	0.208		0.163	0.217	0.187	0.208		0.342	0.183
LCLC-103H	0.682	0.731	0.75	0.651	0.711	0.807	0.744	0.853	0.751	0.749
LK-2	0.994	0.677	0.711	0.656	1.01	0.434	0.265	0.323	0.296	0.434
LOU-NH91	0.805	0.799	0.767	0.798	0.776	0.751	0.755	0.775	0.723	0.841
LU99A	0.596	0.561	0.552	0.52	0.575	0.372	0.256	0.392	0.436	0.338

Cell Line	relative viability (Selisistat + Trametinib; first compound 0.4 µM)	relative viability (Selisistat + Trametinib; first compound 1.265 µM)	relative viability (Selisistat + Trametinib; first compound 4 µM)	relative viability (Selisistat + Trametinib; first compound 12.65 µM)	relative viability (Selisistat + Trametinib; first compound 40 µM)	relative viability (Selisistat + AZD7762; first compound 0.4 µM)	relative viability (Selisistat + AZD7762; first compound 1.265 µM)	relative viability (Selisistat + AZD7762; first compound 4 µM)	relative viability (Selisistat + AZD7762; first compound 12.65 µM)	relative viability (Selisistat + AZD7762; first compound 40 µM)
LXF-289	0.72	0.727	0.646	0.69	0.731	1.12	1.14	0.936	1.03	1.1
NCI-H23	0.402	0.318		0.427	0.485	0.297	0.193		0.31	0.169
NCI-H322M	0.483	0.575		0.567	0.545	0.579	0.657		0.572	0.675
NCI-H358	0.146	0.16	0.122	0.129	0.122	0.532	0.589		0.518	0.639
NCI-H441	0.455	0.432	0.363	0.398	0.452	1.19	1.06	1.29	0.969	1.32
NCI-H460	0.129	0.128	0.0976	0.117	0.142	0.617	0.488		0.571	0.697
NCI-H520	0.545	0.599	0.651	0.681	0.637					
NCI-H522	0.651	0.653	0.745	0.751	0.589	0.63	0.672	0.622	0.9	1.01
NCI-H596	0.864	0.843	0.831	0.733	0.813	1.14	1.01	0.887	1.05	1.06
NCI-H647	0.467	0.457	0.449	0.472	0.474	0.465	0.433	0.345	0.432	0.553
NCI-H650	0.978	1.01	0.967	0.909	1.01	1.15	0.988	1	0.867	1.13
NCI-H661	0.522	0.541	0.442	0.502	0.45					
NCI-H727	0.467	0.38	0.409	0.427	0.44	0.675	0.563	0.369	0.615	0.527
NCI-H838	0.592	0.482	0.511	0.516	0.507	0.933	0.91	0.958	0.971	1.03
NCI-H1355	0.422	0.462	0.422	0.438	0.43	0.774	0.753	0.717	0.819	0.814
NCI-H1395	1.13	0.939		0.979	0.917	0.377	0.393		0.394	0.4
NCI-H1437	0.558	0.485	0.488	0.5	0.477	1.17	1.12	0.918	0.99	1.01
NCI-H1648	0.448	0.399		0.453	0.431	0.736	0.64		0.731	0.768
NCI-H1650	0.564	0.572	0.531	0.577	0.465					
NCI-H1651	0.855	0.871	0.799	0.842	0.817	0.426	0.491	0.462	0.521	0.523
NCI-H1666	0.839	0.833	0.987	0.839	0.83	0.841	0.83	0.806	0.895	0.96
NCI-H1703						0.116	0.114		0.139	0.136
NCI-H1734	0.714	0.674	0.656	0.694	0.718	0.594	0.485	0.453	0.505	0.607
NCI-H1755	0.83	0.883	0.783	0.764	0.841	0.427	0.391	0.407	0.407	0.43
NCI-H1792	0.493	0.38		0.44	0.44	0.654	0.577		0.512	0.713

Cell Line	relative viability (Selisistat + Trametinib; first compound 0.4 µM)	relative viability (Selisistat + Trametinib; first compound 1.265 µM)	relative viability (Selisistat + Trametinib; first compound 4 µM)	relative viability (Selisistat + Trametinib; first compound 12.65 µM)	relative viability (Selisistat + Trametinib; first compound 40 µM)	relative viability (Selisistat + AZD7762; first compound 0.4 µM)	relative viability (Selisistat + AZD7762; first compound 1.265 µM)	relative viability (Selisistat + AZD7762; first compound 4 µM)	relative viability (Selisistat + AZD7762; first compound 12.65 µM)	relative viability (Selisistat + AZD7762; first compound 40 µM)
NCI-H1793	0.38	0.431		0.438	0.381	0.477	0.461		0.53	0.73
NCI-H1915	0.348	0.307	0.318	0.297	0.342	0.668	0.687	0.775	0.674	0.757
NCI-H1944	0.437	0.383	0.455	0.44	0.446	0.523	0.509	0.428	0.653	0.586
NCI-H1975	0.371	0.358	0.262	0.329	0.33	0.684	0.661	0.581	0.647	0.646
NCI-H1993	0.519	0.496		0.518	0.573	0.793	0.791		0.954	0.816
NCI-H2009	0.285	0.278	0.287	0.259	0.282					
NCI-H2023	0.608	0.473	0.607	0.47	0.573					
NCI-H2085	0.518	0.61	0.581	0.554	0.761	1.06	1.02	0.67	0.992	0.983
NCI-H2087	0.194	0.164		0.22	0.202	1.31	1.14		1.19	1.25
NCI-H2126	0.557	0.57	0.565	0.555	0.605	1.04	1.04	0.992	1.03	1.03
NCI-H2170	1.07	0.939	0.85	0.919	0.973	0.868	0.939	0.82	0.854	0.911
NCI-H2228	0.666	0.362	0.564	0.537	0.372					
NCI-H2342	0.931	0.826	0.801	0.736	0.988	0.494	0.483	0.41	0.611	0.505
NCI-H2347	0.266	0.245		0.298	0.285	0.733	0.66		0.774	0.795
NCI-H2405	0.676	0.602		0.601	0.682	0.718	0.732		0.725	0.678
NCI-H3122	0.199	0.258		0.3	0.213	1.03	0.95		1.04	1
PC-3 [JPC-3]	0.805	0.664		0.74	0.695	0.834	0.861		0.744	0.695
PC-14	0.723	0.655	0.823	0.825	0.671	0.381	0.344	0.226	0.278	0.36
RERF-LC-KJ	0.812	0.792	0.816	0.771	0.736	0.932	0.765	0.823	0.898	0.877
SK-LU-1	0.598	0.503	0.546	0.51	0.444					
SK-MES-1	0.589	0.539	0.55	0.492	0.459					
SW 900	1.03	0.87	0.78	0.995	0.78	0.533	0.529	0.681	0.601	0.584
SW 1573	0.615	0.505		0.563	0.565					
